# Patent US20190151312A1, “HEPARAN SULFATE BIOSYNTHESIS INHIBITORS FOR THE TREATMENT OF DISEASES” (BioMarin Pharmaceutical Inc., priority 2014, published 2019)
# pIC50: −log10 of the molar value.
# Test system: GM01896 cells (MPS II dermal fibroblasts)
# Experiment: Assay 1: MPS cellular assay, MPS II (heparan sulfate disaccharide biomarkers by LC-MS)
# Format: cell-based, human
# Conditions: Assay 1 for MPS II, heparan sulfate disaccharide biomarkers (I2a4, I2a6, I2S0 and/or I2S6), read-out: IC50 Range
# Experimental: Dermal fibroblasts from humans with an MPS disorder and from healthy donors are grown. Cells are expanded and kept in culture for analysis. Human foreskin fibroblasts can be obtained from the American Type Culture Collection (CRL-1634). Human dermal fibroblasts derived from biopsies of individuals are purchased from Coriell Institute: clinically healthy individuals, GM00408, GM00409, GM00200 (clinically unaffected sibling of an individual with metachromatic leukodystrophy), GM05659, GM08398, and GM15871 (clinically unaffected sibling of an individual with unclassified Ehlers-Danlos syndrome); heterozygous MPS I carriers, GM01392, GM01393 and GM0003; homozygous individuals affected with MPS I, GM06214, GM11495, GM00034, GM01391 and GM01256; individuals with MPS II, GM01896, GM03181, GM00615 and GM00298; individuals with MPS IIIA, GM00879, GM00643, GM00934, GM06110 and GM00629; MPS IIIB, GM01426; MPS IIIC, GM05157; MPS IIID, GM05093; and MPS VII, GM00121. All cells are grown in DMEM containing 50 U ml-1 penicillin, […] ml-1 streptomycin, 2 mM glutamine and 10% FBS. Cells are seeded on 15-cm-diameter tissue culture dishes, grown to confluence and maintained in culture for analysis. Sulfamidase activity in cell extracts is measured with 4-methylumbelliferyl-α-D-N-sulfoglucosaminide according the vendors instructions substituting Tris-acetate buffer (pH 6.5; Moscerdam).
# Cells are treated with a compound of the invention at a concentration at or below 30 μM for 4 to 21 days. Cell monolayers are washed with phosphate buffered saline and detached by treatment with GIBCO trypsin-EDTA solution (Invitrogen). After centrifugation, the supernatant is removed and the cells are lysed in 0.5 mL of 0.1 N sodium hydroxide. The amount of protein is determined by bicinchoninic acid (BCA assay, Thermo Scientific). GAGs are isolated by anion exchange chromatography and digested with glycosaminoglycan lyases (heparinases I, II, and III, IBEX).
# Enzymatically depolymerized GAG preparations are differentially mass labeled by reductive amination with [^12C6]aniline. Briefly, heparan sulfate disaccharides (1-10 pmol) are dried down in a centrifugal evaporator and reacted with [^12C6]aniline or [^13C6]aniline (15 μL, 165 μmol) and 15 μL of 1 M NaCNBH3 (Sigma-Aldrich) freshly prepared in dimethylsulfoxide/acetic acid (7:3, v/v) is added to each sample. Reactions are carried out at 37° C. for 16 h and then dried in a centrifugal evaporator. Unsubstituted amines are reacted with propionic anhydride (Sigma-Aldrich). Dried samples are reconstituted in 20 μL of 50% methanol, and 3 μL of propionic anhydride (Sigma-Aldrich, 23.3 μmol) is added. Reactions are carried out at ˜23° C. for 2 h. Acylated disaccharides are subsequently aniline tagged as described above. Each sample is mixed with commercially available standard unsaturated disaccharides (Seikagaku), standard N-sulfoglucosamine, glucosamine-6-sulfate, N-acetylgalactosamine-4-sulfate and N-acetylgalactosamine-6-sulfate (Sigma-Aldrich), and/or synthesized α-L-idopyranosyluronate-(1,4)-2-N-acetyl-2-deoxy-α/β-D-glucopyranoside (I0S0). All standards are tagged with [^13C6]aniline (Sigma-Aldrich). Samples are then analyzed by LC-MS using an LTQ Orbitrap Discovery electrospray ionization mass spectrometer (Thermo Scientific) equipped with quaternary HPLC pump (Finnigan Surveyor MS pump) and a reverse-phase capillary column as described in J. Biol. Chem. 2008, 283(48), 33674.
# MPS II: Assay 1, as described above, was used to determine activity for MPS II using GM01896 cells. […] Extracted ion chromatograms were obtained. Cell viability was monitored using alamar blue or ATP quantification. IC50's were calculated using curve fitting within the ChemInnovation CBIS database system.
row,SMILES,pIC50
1,Cn1ccc2ccc(Nc3cc(-c4ccc5c(CCCN6CCCC6)nn(C)c5c4)nc(N4CCOCC4)n3)cc21 [(1-methylindol-6-yl) {6-[1-methyl-3-(3-pyrrolidinylpropyl)(1H-indazol-6-yl)]-2-morpholin-4-ylpyrimidin-4-yl}amine],6.00 to 6.30

# Same assay, conditions: Homo sapiens, Fibroblast, Assay 1 for MPS II, heparan sulfate disaccharide biomarkers (I2a4, I2a6, I2S0 and/or I2S6), read-out: IC50 Range
row,SMILES,pIC50
1,"Cc1cn(C)c2cc(Nc3cc(-c4ccc5c(CCN6CCOCC6)nn(C)c5c4)nc(N4CCOCC4)n3)ccc12 [(1,3-dimethylindol-6-yl){6-[1-methyl-3-(2-morpholin-4-ylethyl)(1H-indazol-6-yl)]-2-morpholin-4-ylpyrimidin-4-yl}amine]",6.00 to 6.30
2,Cn1nc(CCN2CCOCC2)c2ccc(-c3cc(Nc4ccc5ccn(C6CC6)c5c4)nc(N4CCOCC4)n3)cc21 [(1-cyclopropylindol-6-yl) {6-[1-methyl-3-(2-morpholin-4-ylethyl)(1H-indazol-6-yl)]-2-morpholin-4-ylpyrimidin-4-yl}amine],5.30 to 6.00
3,CCn1ccc2ccc(Nc3cc(-c4ccc5cnn(C)c5c4)nc(N4CCOCC4)n3)cc21 [(1-ethylindol-6-yl)[6-(1-methyl(1H-indazol-6-yl))-2-morpholin-4-ylpyrimidin-4-yl]amine],5.30 to 6.00
4,Cn1ncc2cc(Nc3cc(-c4ccc5cnn(C)c5c4)nc(N4CCOCC4)n3)ccc21 [(1-methyl(1H-indazol-5-yl))[6-(1-methyl(1H-indazol-6-yl))-2-morpholin-4-ylpyrimidin-4-yl]amine],5.30 to 6.00
5,Cn1ncc2ccc(Nc3cc(-c4ccc5cnn(C)c5c4)nc(N4CCOCC4)n3)cc21 [(1-methyl(1H-indazol-6-yl))[6-(1-methyl(1H-indazol-6-yl))-2-morpholin-4-ylpyrimidin-4-yl]amine],5.30 to 6.00
6,Cn1ccc2ccc(Nc3cc(-c4ccc5c(CCN6CCOCC6)nn(C)c5c4)nc(N4CCOCC4)n3)cc21 [(1-methylindol-6-yl){6-[1-methyl-3-(2-morpholin-4-ylethyl)(1H-indazol-6-yl)]-2-morpholin-4-ylpyrimidin-4-yl}amine],> 6.30
7,COc1cc(Nc2cc(-c3ccc4c(cnn4C)c3)nc(N3CCOCC3)n2)ccn1 [(2-methoxy(4-pyridyl))[6-(1-methyl(1H-indazol-5-yl))-2-morpholin-4-ylpyrimidin-4-yl]amine],5.30 to 6.00
8,COc1cc(Nc2cc(-c3ccc4cnn(C)c4c3)nc(N3CCOCC3)n2)ccn1 [(2-methoxy(4-pyridyl))[6-(1-methyl(1H-indazol-6-yl))-2-morpholin-4-ylpyrimidin-4-yl]amine],6.00 to 6.30
9,COc1cc(Nc2cc(-c3ccc4c(c3)ncn4C)nc(N3CCOCC3)n2)ccn1 [(2-methoxy(4-pyridyl))[6-(1-methylbenzimidazol-5-yl)-2-morpholin-4-ylpyrimidin-4-yl]amine],5.30 to 6.00
10,COc1cc(Nc2cc(-c3ccc4ncn(C)c4c3)nc(N3CCOCC3)n2)ccn1 [(2-methoxy(4-pyridyl))[6-(1-methylbenzimidazol-6-yl)-2-morpholin-4-ylpyrimidin-4-yl]amine],6.00 to 6.30
11,"Cc1nn(C)c2cc(-c3cc(Nc4ccc(-c5cnn[nH]5)cc4)nc(N4CCOCC4)n3)ccc12 [(4-(1H-1,2,3-triazol-5-yl)phenyl)[6-(1,3-dimethyl(1H-indazol-6-yl))-2-morpholin-4-ylpyrimidin-4-yl]amine]",6.00 to 6.30
12,"Cn1ncc2ccc(-c3cc(Nc4ccc(-c5cnn[nH]5)cc4)nc(N4CCOCC4)n3)cc21 [(4-(1H-1,2,3-triazol-5-yl)phenyl)[6-(1-methyl(1H-indazol-6-yl))-2-morpholin-4-ylpyrimidin-4-yl]amine]",5.30 to 6.00
13,"Cc1nn(C)c2cc(-c3cc(Nc4ccc(-c5nnc[nH]5)cc4)nc(N4CCOCC4)n3)ccc12 [(4-(4H-1,2,4-triazol-3-yl)phenyl)[6-(1,3-dimethyl(1H-indazol-6-yl))-2-morpholin-4-ylpyrimidin-4-yl]amine]",> 6.30
14,"Cc1nn(C)c2cc(-c3cc(Nc4ccc(-c5nnc[nH]5)cc4)nc(N4CCOCC4)n3)cnc12 [(4-(4H-1,2,4-triazol-3-yl)phenyl)[6-(1,3-dimethylpyrazolo[4,5-b]pyridin-6-yl)-2-morpholin-4-ylpyrimidin-4-yl]amine]",> 6.30
15,"Cn1ncc2ccc(-c3cc(Nc4ccc(-c5nnc[nH]5)cc4)nc(N4CCOCC4)n3)cc21 [(4-(4H-1,2,4-triazol-3-yl)phenyl)[6-(1-methyl(1H-indazol-6-yl))-2-morpholin-4-ylpyrimidin-4-yl]amine]",> 6.30
16,"Cn1ncc2ncc(-c3cc(Nc4ccc(-c5nnc[nH]5)cc4)nc(N4CCOCC4)n3)cc21 [(4-(4H-1,2,4-triazol-3-yl)phenyl)[6-(1-methylpyrazolo[4,5-b]pyridin-6-yl)-2-morpholin-4-ylpyrimidin-4-yl]amine]",> 6.30
17,Cn1cnc2ccc(-c3cc(Nc4ccc(Br)cc4)nc(N4CCOCC4)n3)cc21 [(4-bromophenyl)[6-(1-methylbenzimidazol-6-yl)-2-morpholin-4-ylpyrimidin-4-yl]amine],6.00 to 6.30
18,Cn1nc(CCN2CCOCC2)c2ccc(-c3cc(Nc4ccc(Br)cc4)nc(N4CCOCC4)n3)cc21 [(4-bromophenyl){6-[1-methyl-3-(2-morpholin-4-ylethyl)(1H-indazol-6-yl)]-2-morpholin-4-ylpyrimidin-4-yl}amine],6.00 to 6.30
19,CN1CCN(CCn2ncc3ccc(-c4cc(Nc5ccc(Cl)cc5)nc(N5CCOCC5)n4)cc32)CC1 [(4-chlorophenyl)(6-{1-[2-(4-methylpiperazinyl)ethyl](1H-indazol-6-yl)}-2-morpholin-4-ylpyrimidin-4-yl)amine],6.00 to 6.30
20,CN1CCN(CCCn2ncc3ccc(-c4cc(Nc5ccc(Cl)cc5)nc(N5CCOCC5)n4)cc32)CC1 [(4-chlorophenyl)(6-{1-[3-(4-methylpiperazinyl)propyl](1H-indazol-6-yl)}-2-morpholin-4-ylpyrimidin-4-yl)amine],6.00 to 6.30
21,CN1CCN(CCc2nn(C)c3cc(-c4cc(Nc5ccc(Cl)cc5)nc(N5CCOCC5)n4)ccc23)CC1 [(4-chlorophenyl)(6-{1-methyl-3-[2-(4-methylpiperazinyl)ethyl](1H-indazol-6-yl)}-2-morpholin-4-ylpyrimidin-4-yl)amine],6.00 to 6.30
22,Cn1nc(NCCN2CCOCC2)c2ccc(-c3cc(Nc4ccc(Cl)cc4)nc(N4CCOCC4)n3)cc21 [(4-chlorophenyl)(6-{1-methyl-3-[(2-morpholin-4-ylethyl)amino](1H-indazol-6-yl)}-2-morpholin-4-ylpyrimidin-4-yl)amine],6.00 to 6.30
23,Cn1nc(NCCN2CCCC2)c2ccc(-c3cc(Nc4ccc(Cl)cc4)nc(N4CCOCC4)n3)cc21 [(4-chlorophenyl)(6-{1-methyl-3-[(2-pyrrolidinylethyl)amino](1H-indazol-6-yl)}-2-morpholin-4-ylpyrimidin-4-yl)amine],6.00 to 6.30
24,Cn1nc(NCCCN2CCOCC2)c2ccc(-c3cc(Nc4ccc(Cl)cc4)nc(N4CCOCC4)n3)cc21 [(4-chlorophenyl)(6-{1-methyl-3-[(3-morpholin-4-ylpropyl)amino](1H-indazol-6-yl)}-2-morpholin-4-ylpyrimidin-4-yl)amine],6.00 to 6.30
25,Cn1nc(NCCCN2CCCC2)c2ccc(-c3cc(Nc4ccc(Cl)cc4)nc(N4CCOCC4)n3)cc21 [(4-chlorophenyl)(6-{1-methyl-3-[(3-pyrrolidinylpropyl)amino](1H-indazol-6-yl)}-2-morpholin-4-ylpyrimidin-4-yl)amine],5.30 to 6.00
26,CN1CCN(Cc2nn(C)c3cc(-c4cc(Nc5ccc(Cl)cc5)nc(N5CCOCC5)n4)ccc23)CC1 [(4-chlorophenyl)(6-{1-methyl-3-[(4-methylpiperazinyl)methyl](1H-indazol-6-yl)}-2-morpholin-4-ylpyrimidin-4-yl)amine],6.00 to 6.30
